MIC data for 8 compounds are collected here from ChEMBL document CHEMBL3297661, “1-Substituted-5-[(3,5-dinitrobenzyl)sulfanyl]-1H-tetrazoles and their isosteric analogs: A new class of selective antitubercular agents active against drug-susceptible and multidrug-resistant mycobacteria” (Eur J Med Chem, 2014).

≈ marks a conversion by molar mass, not a printed value.

What all share (format): functional
Assay [1] relates to Mycobacterium kansasii. The experiment in a line: Antimycobacterial activity against Mycobacterium kansasii 6509/96 after 21 days by micromethod. As to conditions: 6509/96, 504 h.
In assay [2] the test system is Mycobacterium tuberculosis. In words: Antimycobacterial activity against Mycobacterium tuberculosis CNCTC My 331/88 after 21 days by micromethod. Particulars: CNCTC My 331/88, 504 h.
Assay [3] relates to Mycobacterium tuberculosis. The experiment in a line: Antimycobacterial activity against Mycobacterium tuberculosis CNCTC My 331/88 after 14 days by micromethod. Particulars: CNCTC My 331/88, 336 h.
Assay [4] concerns Mycobacterium kansasii. The experiment in a line: Antimycobacterial activity against Mycobacterium kansasii CNCTC My 235/80 after 21 days by micromethod. As to conditions: CNCTC My 235/80, 504 h.
In assay [5] the test system is Mycobacterium avium. In words: Antimycobacterial activity against Mycobacterium avium CNCTC My 330/88 after 21 days by micromethod. Particulars: CNCTC My 330/88, 504 h.
Assay [6] relates to Mycobacterium avium. The experiment in a line: Antimycobacterial activity against Mycobacterium avium CNCTC My 330/88 after 14 days by micromethod. Particulars: CNCTC My 330/88, 336 h.
Assay [7] relates to Mycobacterium kansasii. In words: Antimycobacterial activity against Mycobacterium kansasii 6509/96 after 7 days by micromethod. Particulars: 6509/96, 168 h.
For assay [8], the system named is Mycobacterium kansasii. The experiment in a line: Antimycobacterial activity against Mycobacterium kansasii CNCTC My 235/80 after 7 days by micromethod. As to conditions: CNCTC My 235/80, 168 h.
The subject of assay [9] is Mycobacterium kansasii. In words: Antimycobacterial activity against Mycobacterium kansasii CNCTC My 235/80 after 14 days by micromethod. As to conditions: CNCTC My 235/80, 336 h.
Assay [10] relates to Mycobacterium kansasii. The experiment in a line: Antimycobacterial activity against Mycobacterium kansasii 6509/96 after 14 days by micromethod. As to conditions: 6509/96, 336 h.

In the case of `CCN(CC)c1ccc(-n2nnnc2SCc2cc([N+](=O)[O-])cc([N+](=O)[O-])c2)cc1`, the MIC is 62 µM (≈ 26.6 µg/mL) against Mycobacterium kansasii [1]; 2 µM (≈ 0.859 µg/mL) in assay [2]; 2 µM (≈ 0.859 µg/mL) in [3]; 32 µM (≈ 13.7 µg/mL) against Mycobacterium kansasii [4]; 62 µM (≈ 26.6 µg/mL) in the assay on Mycobacterium avium [5]; 62 µM (≈ 26.6 µg/mL) in the assay on Mycobacterium avium [6]. Besides, the MIC with Mycobacterium kansasii [7] amounted to 8 µM (≈ 3.44 µg/mL); with Mycobacterium kansasii [8] it was 4 µM (≈ 1.72 µg/mL); against Mycobacterium kansasii [9] it was 8 µM (≈ 3.44 µg/mL); in the assay on Mycobacterium kansasii [10], 16 µM (≈ 6.87 µg/mL).

As to `O=[N+]([O-])c1cc(COc2nnnn2-c2ccc(Cl)cc2)cc([N+](=O)[O-])c1`, the MIC against Mycobacterium kansasii [1] was found to be 32 µM (≈ 12.1 µg/mL); in assay [2], 4 µM (≈ 1.51 µg/mL); in assay [3], 2 µM (≈ 0.753 µg/mL); against Mycobacterium kansasii [4] it was 32 µM (≈ 12.1 µg/mL); against Mycobacterium avium [5], 62 µM (≈ 23.4 µg/mL); in the assay with Mycobacterium avium [6], 32 µM (≈ 12.1 µg/mL). The MIC against Mycobacterium kansasii [7] was 8 µM (≈ 3.01 µg/mL); against Mycobacterium kansasii [8], 8 µM (≈ 3.01 µg/mL); against Mycobacterium kansasii [9], 16 µM (≈ 6.03 µg/mL); against Mycobacterium kansasii [10], 16 µM (≈ 6.03 µg/mL).

As to `O=[N+]([O-])c1cc(CSc2nnnn2-c2cccc(F)c2)cc([N+](=O)[O-])c1`, the minimum inhibitory concentration (MIC) in the assay with Mycobacterium kansasii [1] was 8 µM (≈ 3.01 µg/mL); in [2], 32 µM (≈ 12 µg/mL); in assay [3] it was 16 µM (≈ 6.02 µg/mL); in the assay with Mycobacterium kansasii [4], 8 µM (≈ 3.01 µg/mL); against Mycobacterium avium [5], 250 µM (≈ 94.1 µg/mL); in the assay on Mycobacterium avium [6] it was 250 µM (≈ 94.1 µg/mL). Besides, the MIC against Mycobacterium kansasii [7] was determined as 4 µM (≈ 1.51 µg/mL); against Mycobacterium kansasii [8], 4 µM (≈ 1.51 µg/mL); with Mycobacterium kansasii [9], 4 µM (≈ 1.51 µg/mL); against Mycobacterium kansasii [10] it was 8 µM (≈ 3.01 µg/mL).

In the case of `O=[N+]([O-])c1cc(CSc2nnnn2C23CC4CC(CC(C4)C2)C3)cc([N+](=O)[O-])c1`, the MIC came to 8 µM (≈ 3.33 µg/mL) in the assay with Mycobacterium kansasii [1]; 4 µM (≈ 1.67 µg/mL) in assay [2]; 4 µM (≈ 1.67 µg/mL) in [3]; 16 µM (≈ 6.66 µg/mL) in the assay with Mycobacterium kansasii [4]; 500 µM (≈ 208 µg/mL) against Mycobacterium avium [5]; 500 µM (≈ 208 µg/mL) in the assay with Mycobacterium avium [6]. The MIC turned out to be 8 µM (≈ 3.33 µg/mL) against Mycobacterium kansasii [7], 4 µM (≈ 1.67 µg/mL) with Mycobacterium kansasii [8], 8 µM (≈ 3.33 µg/mL) against Mycobacterium kansasii [9] and 8 µM (≈ 3.33 µg/mL) with Mycobacterium kansasii [10].

As to `O=[N+]([O-])c1cc(CSc2nnnn2-c2ccc(Cl)cc2)cc([N+](=O)[O-])c1`, the minimum inhibitory concentration (MIC) worked out at 4 µM (≈ 1.57 µg/mL) in the assay on Mycobacterium kansasii [1]; 2 µM (≈ 0.786 µg/mL) in assay [2]; 1 µM (≈ 0.393 µg/mL) in assay [3]; 4 µM (≈ 1.57 µg/mL) against Mycobacterium kansasii [4]; 125 µM (≈ 49.1 µg/mL) with Mycobacterium avium [5]; 125 µM (≈ 49.1 µg/mL) in the assay with Mycobacterium avium [6]. Further, the MIC with Mycobacterium kansasii [7] came to 2 µM (≈ 0.786 µg/mL); against Mycobacterium kansasii [8], 2 µM (≈ 0.786 µg/mL); against Mycobacterium kansasii [9], 4 µM (≈ 1.57 µg/mL); with Mycobacterium kansasii [10], 4 µM (≈ 1.57 µg/mL).

Turning to `Nc1cc(N)cc(CSc2nnnn2-c2ccccc2)c1`, the minimum inhibitory concentration (MIC) amounted to 1000 µM (≈ 298 µg/mL) with Mycobacterium kansasii [1]; 500 µM (≈ 149 µg/mL) in [2]; 250 µM (≈ 74.6 µg/mL) in assay [3]; 1000 µM (≈ 298 µg/mL) in the assay on Mycobacterium kansasii [4]; 1000 µM (≈ 298 µg/mL) with Mycobacterium avium [5]; 1000 µM (≈ 298 µg/mL) against Mycobacterium avium [6]. Besides, the MIC in the assay on Mycobacterium kansasii [7] stood at 250 µM (≈ 74.6 µg/mL); with Mycobacterium kansasii [8] it was 250 µM (≈ 74.6 µg/mL); against Mycobacterium kansasii [9], 1000 µM (≈ 298 µg/mL); against Mycobacterium kansasii [10], 1000 µM (≈ 298 µg/mL).

With `COc1ccc(-n2nnnc2[S+]([O-])Cc2cc([N+](=O)[O-])cc([N+](=O)[O-])c2)cc1` (stereo not given), the minimal inhibitory concentration (MIC) against Mycobacterium kansasii [1] is 125 µM (≈ 50.5 µg/mL); in [2], 62 µM (≈ 25.1 µg/mL); in assay [3] it was 62 µM (≈ 25.1 µg/mL); against Mycobacterium kansasii [4], 125 µM (≈ 50.5 µg/mL); in the assay with Mycobacterium avium [5], 250 µM (≈ 101 µg/mL); in the assay on Mycobacterium avium [6], 250 µM (≈ 101 µg/mL). Further, the MIC came to 32 µM (≈ 12.9 µg/mL) in the assay with Mycobacterium kansasii [7], 62 µM (≈ 25.1 µg/mL) against Mycobacterium kansasii [8], 125 µM (≈ 50.5 µg/mL) in the assay with Mycobacterium kansasii [9] and 125 µM (≈ 50.5 µg/mL) against Mycobacterium kansasii [10].

On to `O=[N+]([O-])c1cc(CSc2nnnn2-c2ccccc2)cc([N+](=O)[O-])c1`, for which the MIC against Mycobacterium kansasii [1] amounted to 4 µM (≈ 1.43 µg/mL); in assay [2], 4 µM (≈ 1.43 µg/mL); in assay [3], 4 µM (≈ 1.43 µg/mL); in the assay with Mycobacterium kansasii [4], 16 µM (≈ 5.73 µg/mL); with Mycobacterium avium [5], 62 µM (≈ 22.2 µg/mL); with Mycobacterium avium [6], 62 µM (≈ 22.2 µg/mL). Also, the minimum inhibitory concentration (MIC) worked out at 2 µM (≈ 0.717 µg/mL) in the assay on Mycobacterium kansasii [7], 2 µM (≈ 0.717 µg/mL) against Mycobacterium kansasii [8], 4 µM (≈ 1.43 µg/mL) against Mycobacterium kansasii [9] and 2 µM (≈ 0.717 µg/mL) in the assay with Mycobacterium kansasii [10].
